Measured values published in patent publication US10202360B2 (CELGENE QUANTICEL RESEARCH, INC., priority 2016, dated 2019).

The molecules below were run against CREBBP (Homo sapiens (Human), UniProt Q92793) (assay: In vitro enzyme inhibition assay - CREBBP inhibition (AlphaScreen, biotinylated H4-tetraacetyl peptide)). Conditions: Table 28; AlphaScreen, H4-tetraacetyl peptide.
Format: binding
Outline: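 His-tagged CREBBP expressed in E. coli (50 nM final) incubated with biotinylated H4K5/8/12/16(Ac) peptide (20 nM final) in HEPES pH 7.3 buffer, 0.4% DMSO, 20 min at room temperature.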

Sequence of CREBBP (Q92793 1081-1197): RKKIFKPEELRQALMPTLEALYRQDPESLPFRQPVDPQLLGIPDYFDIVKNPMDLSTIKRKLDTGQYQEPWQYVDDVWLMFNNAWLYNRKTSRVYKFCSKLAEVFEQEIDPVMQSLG

IC50 [nM] | SMILES
< 500 | Cc1ccc(F)c(Oc2nc(NS(=O)(=O)CCC(C)C)cc(-c3ccc(=O)n(C)c3)n2)c1Cl [Example 265, 3-Methyl-butane-1-sulfonic acid [2-(2-chloro-6-fluoro-3-methyl-phenoxy)-6-(1-methyl-6-oxo-1,6-dihydro-pyridin-3-yl)-pyrimidin-4-yl]-amide]
< 500 | Cc1cccc(Cl)c1Oc1nc(NS(=O)(=O)CCC2CC2)cc(-c2ccc(=O)n(C)c2)n1 [Example 266, 2-Cyclopropyl-ethanesulfonic acid [2-(2-chloro-6-methyl-phenoxy)-6-(1-methyl-6-oxo-1,6-dihydro-pyridin-3-yl)-pyrimidin-4-yl]-amide]
< 500 | Cn1cc(-c2cc(NS(=O)(=O)CCC3CC3)nc(Oc3c(F)cccc3Cl)n2)ccc1=O [Example 268, 2-Cyclopropyl-ethanesulfonic acid [2-(2-chloro-6-fluoro-phenoxy)-6-(1-methyl-6-oxo-1,6-dihydro-pyridin-3-yl)-pyrimidin-4-yl]-amide]
< 500 | Cc1cc(-c2cc(N)nc(Oc3ccc(F)cc3F)n2)cn(C)c1=O [Example 270, 5-(6-amino-2-(2,4-difluorophenoxy)pyrimidin-4-yl)-1,3-dimethy-lpyridin-2(1H)-one]
< 500 | Cc1cc(-c2cc(NCCc3ccccc3)nc(Oc3ccc(F)cc3F)n2)cn(C)c1=O [Example 271, 5-(2-(2,4-difluorophenoxy)-6-(phenethylamino)pyrimidin-4-yl)-1,3-dimethylpyridin-2(1H)-one]
< 500 | Cc1cc(-c2cc(NCc3ccccc3)nc(Oc3ccc(F)cc3F)n2)cn(C)c1=O [Example 272, 5-(6-(benzylamino)-2-(2,4-difluorophenoxy)pyrimidin-4-yl)-1,3-dimethylpyridin-2(1H)-one]
< 500 | Cn1cc(-c2cc(NCc3ccccc3)nc(Oc3ccc(F)cc3F)n2)ccc1=O [Example 274, 5-(6-(benzylamino)-2-(2,4-difluorophenoxy)pyrimidin-4-yl)-1-methylpyridin-2(1H)-one]
< 500 | CN(Cc1ccccc1)c1cc(-c2ccc(=O)n(C)c2)nc(Oc2ccc(F)cc2F)n1 [Example 275, 5-(6-(benzyl(methyl)amino)-2-(2,4-difluorophenoxy)pyrimidin-4-yl)-1-methylpyridin-2(1H)-one]
< 500 | Cn1cc(-c2cc(Nc3ccccc3)nc(Oc3ccc(F)cc3F)n2)ccc1=O [Example 276, 5-(2-(2,4-difluorophenoxy)-6-(phenylamino)pyrimidin-4-yl)-1-methylpyridin-2(1H)-one]
< 500 | CCN(CC)c1cc(-c2ccc(=O)n(C)c2)nc(Oc2ccc(F)cc2F)n1 [Example 277, 5-(6-(diethylamino)-2-(2,4-difluorophenoxy)pyrimidin-4-yl)-1-methylpyridin-2(1H)-one]
< 500 | CCOc1ccc(C(C)Nc2cc(-c3ccc(=O)n(C)c3)nc(Oc3c(C)cccc3F)n2)cc1 (centres unmarked) [Example 278, 5-(6-((1-(4-ethoxyphenyl)ethyl)amino)-2-(2-fluoro-6-methylphenoxy)pyrimidin-4-yl)-1-methylpyridin-2(1H)-one]
< 500 | CCc1ccc(C(C)Nc2cc(-c3ccc(=O)n(C)c3)nc(Oc3c(C)cccc3F)n2)cc1 (centres unmarked) [Example 279, 5-(6-((1-(4-ethylphenyl)ethyl)amino)-2-(2-fluoro-6-methylphenoxy)pyrimidin-4-yl)-1-methylpyridin-2(1H)-one]
< 500 | Cc1cccc(F)c1Oc1nc(NC2CCCc3ccccc32)cc(-c2ccc(=O)n(C)c2)n1 (centres unmarked) [Example 280, 5-(2-(2-fluoro-6-methylphenoxy)-6-((1,2,3,4-tetrahydronaphthalen-1-yl)amino)pyrimidin-4-yl)-1-methylpyridin-2(1H)-one]
< 500 | Cc1cccc(F)c1Oc1nc(NC(C)C)cc(-c2ccc(=O)n(C)c2)n1 [Example 281, 5-(2-(2-fluoro-6-methylphenoxy)-6-(isopropylamino)pyrimidin-4-yl)-1-methylpyridin-2(1H)-one]
